The record followed here is patent US11319318B2, “Pyridinones and isoquinolinones as inhibitors of the bromodomain BRD9” (Boehringer Ingelheim International GmbH, priority 2015, dated 2022).

The experiment concerns the target T1, bromodomain of BRD9 (GST-BRD9 aa 130-259) / H3 K9/14/18/23Ac(1-28) peptide (Homo sapiens, UniProt Q9H8M2).
T1 construct: The protein corresponding to amino acids 130-259 that contains the bromodomain of BRD9; made in house; host or cells: E. coli
T1 sequence (Q9H8M2 130-259): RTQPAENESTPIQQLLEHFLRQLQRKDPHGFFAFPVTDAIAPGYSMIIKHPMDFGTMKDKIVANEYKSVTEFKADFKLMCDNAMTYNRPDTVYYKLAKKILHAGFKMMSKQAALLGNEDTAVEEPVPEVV
Kind of experiment: BRD9-H3 tetra-acetylated Peptide Inhibition AlphaScreen. The format is binding. Background: In Alpha technology, singlet oxygen from a donor bead excites a nearby acceptor bead.

Text: Biological Methods BRD9-H3 tetra-acetylated Peptide Inhibition AlphaScreen
This assay is used to identify compounds which inhibit the interaction of the bromodomain of BRD9 with a tetra-acetylated peptide based on the sequence of histone H3 (H3 K9/14/18/23Ac (1-28)).
AlphaScreen Beads (Perkin Elmer):
AlphaLISA Glutathione Acceptor Beads
AlphaScreen Streptavidin Donor Beads
The assay is done in a darkened room below 100 Lux.
Compounds are dispensed onto assay plates using an Access Labcyte Workstation with the Labcyte Echo 550 from a DMSO solution. For the chosen highest concentration of 100 μM, 150 nl of compound solution are transferred from a 10 mM DMSO solution. […] DMSO is added such that every well has a total of 150 nl of DMSO.
After 60 min at room temperature the signal is measured in a PerkinElmer Envision HTS Multilabel Reader using the AlphaScreen specifications from PerkinElmer.
Each plate contains negative controls where biotinylated H3 K9/14/18/23Ac(1-28) peptide and GST-BRD9 are left out and replaced by assay buffer. Negative control values are entered as low basis value when using the software GraphPad Prism for calculations.

Broadly, the IC50 is the concentration needed to halve the response being measured. Read a low IC50 as greater potency in that assay. The compound `Cc1cc(-c2ccc([C@@H](C)N3CCCC3)cc2)cn(C)c1=O` [Compound I-1, 1,3-Dimethyl-5-[4-((R)-1-pyrrolidin-1-yl-ethyl)-phenyl]-1H-pyridin-2-one] showed an IC50 of 105 nM.

Take `Cc1cc(-c2ccc([C@H](C)N3CCCC3)cc2)cn(C)c1=O` [Compound I-2, 1,3-dimethyl-5-[4-((S)-1-pyrrolidin-1-yl-ethyl)-phenyl]-1H-pyridin-2-one]: the IC50 came out at 145 nM.

Take `Cc1cc(-c2ccc([C@H](C)N3CCCCC3)cc2)cn(C)c1=O` [Compound I-3]: the IC50 came to 157 nM.

Take `Cc1cc(-c2ccc([C@@H](C)N3CCCCC3)cc2)cn(C)c1=O` [Compound I-4]: the IC50 was determined as 172 nM.

`Cc1cc(-c2ccc(C(C)N3CCCC3)cc2)cn(C)c1=O` (centres unmarked) [Compound I-5]: the IC50 is 137 nM.

`Cc1cc(-c2ccc(C(C)N3CCCCC3)cc2)cn(C)c1=O` (centres unmarked) [Compound I-6] registered an IC50 of 318 nM. This IC50 lies about 2.3-fold higher than the previous one.

For `Cc1cc(-c2ccc(S(=O)(=O)NCCN(C)C)c(OC(F)(F)F)c2)cn(C)c1=O` [Compound I-7], half-maximal inhibition (IC50) was put at 326 nM.

As for `Cc1cc(-c2ccc(S(=O)(=O)N(C)C)cc2)cn(C)c1=O` [Compound I-8], 976 nM corresponded to half-maximal inhibition (IC50).

In turn, `Cc1cc(-c2ccc(C(C)N3CCOCC3)cc2)cn(C)c1=O` (centres unmarked) [Compound I-10] returned an IC50 of 1080 nM.

`Cc1cc(-c2ccc(C(C)N(C)C)cc2)cn(C)c1=O` (centres unmarked) [Compound I-11] displayed an IC50 of 1430 nM.

In the case of `CNS(=O)(=O)c1ccc(-c2cc(C)c(=O)n(C)c2)cc1` [Compound I-12], the midpoint of inhibition, the IC50, lay at 1550 nM. The IC50 values of the last two compounds are within 1.5-fold of each other.

Compound `Cc1cc(-c2ccc(S(=O)(=O)C(C)C)cc2)cn(C)c1=O` [Compound I-13] had an IC50 of 1590 nM.

`Cc1cc(-c2cccc(CN(C)C)c2)cn(C)c1=O` [Compound I-17] had an IC50 of 2540 nM.

`Cc1cc(-c2ccc(CN3CCN(C)CC3)cc2)c(C)n(C)c1=O` [Compound I-21] had an IC50 of 1690 nM.

`Cc1c(-c2ccc(C(=O)N3CCNCC3)cc2)cc(I)c(=O)n1C` [Compound I-22] showed an IC50 of 235 nM.

Compound `Cc1cc(-c2cccc(NS(C)(=O)=O)c2)cn(C)c1=O` [Compound I-31, N-[3-(1,5-Dimethyl-6-oxo-1,6-dihydro-pyridin-3-yl)-phenyl]-methanesulfonamide] yielded an IC50 of 1220 nM.

Take `COc1cc(-c2cc(C)c(=O)n(C)c2)ccc1CN1CC(O)C1` [Compound I-47, 5-[4-(3-Hydroxy-azetidin-1-ylmethyl)-3-methoxy-phenyl]-1,3-dimethyl-1H-pyridin-2-one]: the IC50 was 52 nM.

For the compound `Cc1cc(-c2ccc3c(c2)CNC3)cn(C)c1=O` [Compound I-49, 5-(2,3-dihydro-1H-isoindol-5-yl)-1,3-dimethyl-1H-pyridin-2-one], the IC50 stood at 65 nM.

As for `COc1cc(-c2cc(C)c(=O)n(C)c2)ccc1CN1CC(OC)C1` [Compound I-50], half-maximal inhibition (IC50) was put at 74 nM.

For the compound `COc1cc(-c2cc(C)c(=O)n(C)c2)ccc1CN1C[C@@H]2CC1CN2C` [Compound I-51], the midpoint of inhibition, the IC50, lay at 78 nM.

Compound `COc1cc(-c2cc(C)c(=O)n(C)c2)cc(OC)c1CN1CCNCC1` [Compound I-52] registered an IC50 of 87 nM.

Regarding `COc1cc(-c2cc(C)c(=O)n(C)c2)ccc1C1(N(C)C)CC1` [Compound I-53], half-maximal inhibition (IC50) was put at 97 nM.

Take `COc1cc(-c2cc(C)c(=O)n(C)c2)ccc1CN1C[C@@H]2CC1CN2` [Compound I-54]: half-maximal inhibition (IC50) was put at 121 nM. The IC50 values of the last two compounds are within 1.5-fold of each other.

Consider `COc1cc(-c2cc(C)c(=O)n(C)c2)c(OC)cc1CN1CC(O)C1` [Compound I-55], for which the IC50 was 124 nM.

In turn, `COc1cc(S(=O)(=O)N2CC(O)C2)c(OC)cc1-c1cc(C)c(=O)n(C)c1` [Compound I-56] returned an IC50 of 131 nM.

In the case of `COc1cc(S(=O)(=O)NCCN(C)C)c(OC)cc1-c1cc(C)c(=O)n(C)c1` [Compound I-57], the IC50 is 132 nM.

Consider `Cc1cc(-c2ccc(C3(N(C)C)CC3)cc2)cn(C)c1=O` [Compound I-58], for which the IC50 was determined as 137 nM. The IC50 values of the last two compounds are within 1.5-fold of each other.

Compound `COCc1c(OC)cc(-c2cc(C)c(=O)n(C)c2)cc1OC` [Compound I-59] showed an IC50 of 142 nM.

For the compound `Cc1cc(-c2cc(C)c(=O)n(C)c2)ccc1C1(N(C)C)CC1` [Compound I-60], the IC50 is 143 nM.

In turn, `CCC(CC)(c1ccc(-c2cc(C)c(=O)n(C)c2)cc1OC)N1CCN(C)CC1` [Compound I-61] gave an IC50 of 179 nM.

As to `COc1cc(-c2cc(C)c(=O)n(C)c2)c(OC)cc1CN1CCN(C)CC1` [Compound I-62], 181 nM corresponded to half-maximal inhibition (IC50).

Compound `COc1cc(-c2cc(C)c(=O)n(C)c2)cc(OC)c1CN1CCN(C)CC1` [Compound I-63] displayed an IC50 of 203 nM.

The compound `Cc1cc(-c2ccc(S(=O)(=O)N3CCNCC3)cc2)cn(C)c1=O` [Compound I-64] had a 50% inhibitory concentration (IC50) of 211 nM.

Take `COc1cc(-c2cc(C)c(=O)n(C)c2)ccc1S(=O)(=O)NCCN(C)C` [Compound I-65]: half-maximal inhibition (IC50) required 213 nM.

In the case of `Cc1cc(-c2ccc(C3(N(C)C)CCC3)cc2)cn(C)c1=O` [Compound I-66], 213 nM corresponded to half-maximal inhibition (IC50).

`COc1cc(-c2cc(C)c(=O)n(C)c2)ccc1C1(N2CCN(C)CC2)CC1` [Compound I-67]: the IC50 is 215 nM.

On to `Cc1cc(-c2cc(C)c(=O)n(C)c2)ccc1S(=O)(=O)NCCN(C)C` [Compound I-68], for which the midpoint of inhibition, the IC50, lay at 223 nM.

`COc1cc(S(=O)(=O)N2CCN(C)CC2)c(OC)cc1-c1cc(C)c(=O)n(C)c1` [Compound I-70] returned an IC50 of 237 nM.

The compound `CCc1cc(-c2cc(C)c(=O)n(C)c2)cc(OC)c1C(O)CC` (centres unmarked) [Compound I-71] registered an IC50 of 289 nM.

`COc1cc(-c2cc(C)c(=O)n(C)c2)ccc1CN1C[C@H]2C[C@@H]1CN2C` [Compound I-72] gave an IC50 of 335 nM.

`Cc1cc(-c2ccc(C(=O)C3CCNCC3)cc2)cn(C)c1=O` [Compound I-73]: the IC50 turned out to be 361 nM.

In the case of `COc1cc(-c2cc(C)c(=O)n(C)c2)ccc1S(=O)(=O)N1CC(O)C1` [Compound I-74], the midpoint of inhibition, the IC50, lay at 371 nM.

`Cc1cc(-c2cc(C)c(=O)n(C)c2)ccc1S(=O)(=O)N1CC(O)C1` [Compound I-75]: half-maximal inhibition (IC50) was put at 393 nM. This IC50 and that of the compound before are within 1.5-fold of each other.

For `COc1cc(-c2cc(C)c(=O)n(C)c2)ccc1C(=O)N1C[C@@H]2CC1CN2` [Compound I-76], it took 409 nM to reach half-maximal inhibition (IC50).

For `COc1cc(-c2cc(C)c(=O)n(C)c2)ccc1C(=O)N1C[C@@H]2CC1CN2C` [Compound I-77], it took 418 nM to reach half-maximal inhibition (IC50).

Consider `CCOc1cc(-c2cc(C)c(=O)n(C)c2)ccc1CN1CC[N+](C)(CC)CC1` [Compound I-81], for which 502 nM corresponded to half-maximal inhibition (IC50).

In the case of `COc1cc(-c2cc(C)c(=O)n(C)c2)ccc1S(=O)(=O)N1CCN(C)CC1` [Compound I-82], it took 515 nM to reach half-maximal inhibition (IC50). This IC50 and that of the compound before are within 1.5-fold of each other.

With `Cc1cc(-c2cc(C)c(=O)n(C)c2)ccc1S(=O)(=O)N1CCN(C)CC1` [Compound I-83], the IC50 turned out to be 521 nM.

Turning to `Cc1cc(-c2cc(C)c(=O)n(C)c2)ccc1C1(N2CCN(C)CC2)CC1` [Compound I-84], the IC50 is 618 nM.

`Cc1cc(-c2ccc3c(c2)CCNC3)cn(C)c1=O` [Compound I-85] displayed an IC50 of 708 nM.

Regarding `COc1cc(-c2cc(C)c(=O)n(C)c2)ccc1CN1CCN(C)C(C)C1` (centres unmarked) [Compound I-86], 777 nM corresponded to half-maximal inhibition (IC50).

As for `Cc1cc(-c2cccc(CN)c2)cn(C)c1=O` [Compound I-87], the midpoint of inhibition, the IC50, lay at 849 nM.

As to `Cc1cc(-c2ccc3c(c2)CNCC3)cn(C)c1=O` [Compound I-90], half-maximal inhibition (IC50) was put at 950 nM. This IC50 and that of the compound before are within 1.5-fold of each other.
